Test results published in patent EP0915894B1, “NUCLEOTIDE ANALOGS” (GILEAD SCIENCES, INC., priority 1996, dated 1998).
pIC50: −log10 of the molar value.

Tests used:
[1] = tested on: HIV-1(IIIB); assay: Antiviral activity against HIV-1(IIIB) in MT-2 cells (tissue culture); assay type: cell-based; settings: for SI - Selectivity Index(CC50/IC50): CC50/IC50, HIV-1, MT-2 cells; for pIC50: Human immunodeficiency virus 1, MT2, HIV-1(IIIB), MT-2 cells, read-out: IC50 (50% inhibitory concentration)
Text: (§1) PMPA (9-[(R)-2-(phosphonomethoxy)propyl]adenine) and PMPA carbonates were examined to determine their activity against HIV-1.

[2] = tested on: MT-2 cells; assay: Cytotoxicity in MT-2 cells (concentration to kill 50% of the cells); assay type: cell-based
Text: as §1

[3] = Chemical (solution) stability of PMPA carbonates; assay type: physicochemical; settings: compared with preferred t 1/2 at pH 7.4 (> 2-12 hours) and at pH 2.0 (> 1, 10 or 100 hours)
Procedure: The solution stability of PMPA carbonates was studied at pH 7.4 at 37°C in 10 mM buffer (NaH2PO4 and Na2HPO4) with the total ionic strength adjusted to 0.15 M with KCl. The assays were performed by adding 200 µL of a PMPA carbonate stock solution (about 1 mg/mL in DMSO) to 10 mL of pre-equilibrated buffer at 37°C. Samples were removed at specific times points and analyzed by HPLC. The chemical t 1/2 is expressed in terms of the number of hours required to hydrolyze 50% of the carbonate at the specified pH.

[4] = physchem
Text: as §1

[5] = Cytotoxicity in MT-2 cells (concentration to kill 50% of the cells); assay type: cell-based; settings: human
Text: as §1

Row | Compound | SI - Selectivity Index(CC50/IC50) [1] | pIC50 [1] | CC50 [2] [nM] | t 1/2 (chemical stability) [3] | increased potency / activity compared to PMPA ([1]; anti-HIV-1 activity relative to PMPA) [fold] | logP [4] | CC50 [5] [nM]
1 | CCOC(=O)OCOP(=O)(CO[C@H](C)Cn1cnc2c(N)ncnc21)OCOC(=O)OCC [5a] | 20000 | 8.70 | 40000 |  |  |  | 
2 | CC(C)COC(=O)OCOP(=O)(CO[C@H](C)Cn1cnc2c(N)ncnc21)OCOC(=O)OCC(C)C [5c] | 30000 | > 9.00 | 30000 |  |  |  | 
3 | C[C@H](Cn1cnc2c(N)ncnc21)OCP(=O)(OCOC(=O)OC(C)(C)C)OCOC(=O)OC(C)(C)C [5d] | 50 | 6.70 | 10000 | less stable than these parameters | 2.5 |  | 
4 | C[C@H](Cn1cnc2c(N)ncnc21)OCP(=O)(OCOC(=O)OCC(C)(C)C)OCOC(=O)OCC(C)(C)C [5e] | 3000 | > 9.00 | 3000 |  |  |  | 
5 | CC(C)OC(=O)OCOP(=O)(CO[C@H](C)Cn1cnc2c(N)ncnc21)OCOC(=O)OC(C)C [5f] | 16600 | 8.52 | 50000 |  |  |  | 
6 | CCC(CC)OC(=O)OCOP(=O)(CO[C@H](C)Cn1cnc2c(N)ncnc21)OCOC(=O)OC(CC)CC [5g] | 40000 | > 9.00 | 40000 |  |  |  | 
7 | C[C@H](Cn1cnc2c(N)ncnc21)OCP(=O)(O)O [compound 2, 9-[(R)-2-(phosphonomethoxy)propyl]adenine, reference compound] | 500 | 6.30 |  |  |  | -2.5 | 250000
